According to BindingDB's records for doi:10.1021/jm000022w (Cor Therapeutics, 2000):
One block for each compound: values may come before it. Starred links: 1 amine or outer side, 2 acyl side, 3 side chain; linkers in the order of their positions; H or OH if unused. Positions of bridges follow the written chain, without caps; N, C: chain ends. Non-standard residues stand in square brackets, D forms with d. Residues, ends and D or L forms follow the SMILES beside them. ξ: configuration not given here. Cys(O)(CH2CO) = O=C([C@H](C[S+]([O-])CC(=O)[*:3])N[*:1])[*:2]; NMeR = CN[C@@H](CCCNC(=N)N)C(=O)O; hArg = N=C(N)NCCCC[C@H](N)C(=O)O; 3Amb = NCc1cccc(C(=O)O)c1; ξR = N=C(N)NCCCC(N)C(=O)O; dAbu = CC[C@@H](N)C(=O)O; Mpa = O=C(O)CCS

Tests used:
[1] = Inhibition of […] and platelet aggregation in human platelet rich plasma
[2] = Inhibition of human platelet aggregation
[3] = In vitro inhibition of gel filtered platelet aggregation induced by ADP.
[4] = Inhibition of human platelet aggregation; remark: listed apart in the source
[5] = Inhibition of platelet aggregation
[6] = Inhibition of ADP-induced platelet aggregation in human platelet rich plasma
[7] = Inhibition of human platelet aggregation; remark: listed apart in the source
[8] = Inhibition of platelet aggregation; remark: listed apart in the source
[9] = Inhibition canine platelet aggregation in platelet rich plasma (PRP)
[10] = Inhibition of platelet aggregation; remark: listed apart in the source
[11] = Inhibition of human platelet aggregation collected with sodium citrate as anticoagulant
[12] = Inhibition of human gel filtered platelet aggregation induced by ADP

IC50 [1]: 20 nM
SMILES: N=C(N)c1ccc(N2CCN(c3ccc(OCC(=O)O)cc3)CC2)cc1 [{4-[4-(4-Carbamimidoyl-phenyl)-piperazin-1-yl]-phenoxy}-acetic acid]

IC50 [2]: 8 nM
SMILES: CCOC(=O)CN1CCN(C[C@@H]2CN(c3ccc(C(N)=NC(=O)OC)cc3)C(=O)O2)CC1 [Gantofiban]

IC50 [4]: 46 nM
SMILES: CC[C@H]1NC(=O)c2cccc(c2)CNC(=O)[C@H](CC(=O)O)NC(=O)CNC(=O)[C@H](CCCN=C(N)N)N(C)C1=O [DMP-728] (cyclo([NMeR]GD[3Amb][dAbu]))

IC50 [1]: 59 nM
SMILES: [H]/N=C(/N)c1ccc(N2CCN(C3CCN(CC(=O)O)CC3)CC2)cc1 [{4-[4-(4-Carbamimidoyl-phenyl)-piperazin-1-yl]-piperidin-1-yl}-acetic acid (GR 144053)]

IC50 [6]: 65 nM
SMILES: CN(C(=O)c1ccc2c(c1)NC(CC(=O)O)C(=O)N(CCc1ccccc1)C2)c1ccc(C(=N)N)cc1 (stereo unspecified) [{8-[(4-Carbamimidoyl-phenyl)-methyl-carbamoyl]-3-oxo-4-phenethyl-2,3,4,5-tetrahydro-1H-benzo[e][1,4]diazepin-2-yl}-acetic acid(SB-208651)]

IC50 [3]: 35 nM
SMILES: N=C(c1ccc(C(=O)Nc2ccc3c(c2)C[C@@H](CC(=O)O)CO3)cc1)N1CCOCC1 [{(S)-6-[4-(Imino-morpholin-4-yl-methyl)-benzoylamino]-chroman-3-yl}-acetic acid]

IC50 [9]: 72 nM
SMILES: N=C(N)c1ccc(CCCCC(=O)N[C@@H](CC(=O)O)C(=O)N[C@@H](Cc2ccccc2)C(=O)O)cc1 [SC-52012]

IC50 [3]: 190 nM
SMILES: N=C(N)c1ccc(C(=O)Nc2ccc3c(c2)CCC(CC(=O)O)O3)cc1 (stereo unspecified) [[6-(4-Carbamimidoyl-benzoylamino)-chroman-2-yl]-acetic acid]

IC50 [3]: 8 nM
SMILES: O=C(NC[C@H](NS(=O)(=O)c1ccccc1)C(=O)O)c1cc2c(s1)CCN(CCC1CCNCC1)C2=O [(S)-2-Benzenesulfonylamino-3-{[4-oxo-5-(2-piperidin-4-yl-ethyl)-4,5,6,7-tetrahydro-thieno[3,2-c]pyridine-2-carbonyl]-amino}-propionic acid]

IC50 [3]: 9 nM
SMILES: CCCCS(=O)(=O)N[C@@H](CNC(=O)c1cc2n(n1)CCN(CCC1CCNCC1)C2=O)C(=O)O [(S)-2-(Butane-1-sulfonylamino)-3-{[4-oxo-5-(2-piperidin-4-yl-ethyl)-4,5,6,7-tetrahydro-pyrazolo[1,5-a]pyrazine-2-carbonyl]-amino}-propionic acid]

IC50 [11]: 140 nM
SMILES: N=C(N)NCCCC[C@@H]1NC(=O)CCSSC[C@@H](C(N)=O)NC(=O)[C@@H]2CCCN2C(=O)[C@H](Cc2c[nH]c3ccccc23)NC(=O)[C@H](CC(=O)O)NC(=O)CNC1=O ([Mpa][hArg]GDWPC-NH2; disulfide 1-7)

IC50 [10]: 32000 nM
SMILES: COc1ccc(C[C@H](NC(=O)[C@H](CC(=O)O)NC(=O)CNC(=O)[C@@H](N)CCCNC(=N)N)C(N)=O)cc1 [SC-46749] (H-RGDY(Me)-NH2)

IC50 [3]: 60 nM
SMILES: N=C(N)c1ccc(C(=O)Nc2ccc3c(c2)CCC(CC(=O)O)C3=O)cc1 (stereo unspecified) [[6-(4-Carbamimidoyl-benzoylamino)-1-oxo-1,2,3,4-tetrahydro-naphthalen-2-yl]-acetic acid]

IC50 [6]: 160 nM
SMILES: CN(C(=O)c1ccc2c(c1)CN(CCc1ccccc1)C(=O)C(CC(=O)O)N2)c1ccc(C(=N)N)cc1 (stereo unspecified) [{7-[(4-Carbamimidoyl-phenyl)-methyl-carbamoyl]-3-oxo-4-phenethyl-2,3,4,5-tetrahydro-1H-benzo[e][1,4]diazepin-2-yl}-acetic acid]

IC50 [3]: 12 nM
SMILES: C#C[C@H](CC(=O)O)NC(=O)CN1CCc2ccc(N3CCNCC3)cc2C1=O [L-767679]

IC50 [3]: 10 nM
SMILES: Cc1ccc(S(=O)(=O)N[C@@H](CNC(=O)c2ccc3oc(-c4ccc(C(=N)N)cc4)nc3c2)C(=O)O)cc1 [(S)-3-{[2-(4-Carbamimidoyl-phenyl)-benzooxazole-5-carbonyl]-amino}-2-(toluene-4-sulfonylamino)-propionic acid]

The remaining lines, values behind:

SMILES: CCCCS(=O)(=O)NC(CC#Cc1ccc2[nH]c(=O)n(CCC3CCNCC3)c(=O)c2c1)C(=O)O (stereo unspecified) [2-(Butane-1-sulfonylamino)-5-[2,4-dioxo-3-(2-piperidin-4-yl-ethyl)-1,2,3,4-tetrahydro-quinazolin-6-yl]-pent-4-ynoic acid]
IC50 [3]: 37 nM

SMILES: N=C(N)NCCC[C@@H]1NC(=O)[C@@H](Cc2ccc(O)cc2)NC(=O)C[S+]([O-])C[C@@H](C(=O)O)NC(=O)[C@H](CC(=O)O)NC(=O)CNC1=O (stereo partly specified) [6-Carboxymethyl-12-(3-guanidino-propyl)-15-(4-hydroxy-benzyl)-1,5,8,11,14,17-hexaoxo-1lambda*4*-thia-4,7,10,13,16-pentaaza-cyclooctadecane-3-carboxylic acid (G4120)] ([dY]RGD[Cys(O)(CH2CO)]-OH; lactam N-5)
IC50 [5]: 150 nM

SMILES: [H]/N=C(/N)c1ccc(C2=NO[C@@H](CC(=O)NC[C@H](NC(=O)OCCCC)C(=O)O)C2)cc1
IC50 [3]: 60 nM

SMILES: C[C@@H](COc1ccc(N2CCN(c3ccncc3)CC2)cc1)CC(=O)O [3-Methyl-4-[4-(4-pyridin-4-yl-piperazin-1-yl)-phenoxy]-butyric acid (ZD 2486)]
IC50 [1]: 50 nM

SMILES: CN(CC(=O)c1ccc(OCC(=O)O)c(OCC(=O)O)c1)C(=O)c1ccc(C(=N)N)cc1 [(4-{2-[(4-Carbamimidoyl-benzoyl)-methyl-amino]-acetyl}-2-carboxymethoxy-phenoxy)-acetic acid]
IC50 [5]: 70 nM

SMILES: CCCCS(=O)(=O)NC(CC#Cc1ccc2nc(C)n(CCC3CCNCC3)c(=O)c2c1)C(=O)O (stereo unspecified) [2-(Butane-1-sulfonylamino)-5-[2-methyl-4-oxo-3-(2-piperidin-4-yl-ethyl)-3,4-dihydro-quinazolin-6-yl]-pent-4-ynoic acid]
IC50 [3]: 43 nM

SMILES: [H]/N=C(/N)c1ccc(C(=O)N[C@@H](Cc2ccc(O)cc2)C(=O)N2CCC(OCC(=O)O)CC2)cc1
IC50 [5]: 30 nM

SMILES: O=C(NC[C@H](NS(=O)(=O)c1ccccc1)C(=O)O)c1cc2cc(OCC3CCNCC3)ccc2[nH]1 [2-Benzenesulfonylamino-3-{[5-(piperidin-4-ylmethoxy)-1H-indole-2-carbonyl]-amino}-propionic acid(L-756568)]
IC50 [3]: 13 nM

SMILES: CC(C)CC(=O)N[C@@H](CCCCNC(=O)c1ccc(C(=N)N)cc1)CC(=O)O [7-(4-Carbamimidoyl-benzoylamino)-3-(3-methyl-butyrylamino)-heptanoic acid (GPI 562)]
IC50 [7]: 15 nM

SMILES: CCOC(=O)CCN(c1ncc(-c2ccc(C(N)=NC(=O)OCC)cc2)s1)C1CCN(CC(=O)OCC)CC1 [3-[{5-[4-(Ethoxycarbonylamino-imino-methyl)-phenyl]-thiazol-2-yl}-(1-ethoxycarbonylmethyl-piperidin-4-yl)-amino]-propionic acid ethyl ester (SR121787)]
IC50 [8]: > 90 nM

SMILES: Cc1c(C(=O)NCCC(=O)O)s/c(=N\C(=O)c2ccc(C(=N)N3CCC4(CC3)OCCO4)cc2)n1C [3-[(2-{4-[(1,4-Dioxa-8-aza-spiro[4.5]dec-8-yl)-imino-methyl]-benzoylimino}-3,4-dimethyl-2,3-dihydro-thiazole-5-carbonyl)-amino]-propionic acid (PSA0613)]
IC50 [8]: 22 nM

SMILES: CC(=O)NC(CCCNC(=N)N)C(=O)NCC(=O)N[C@@H](CC(=O)O)C(=O)N[C@H](C(N)=O)C(C)C (stereo partly specified) [3-[2-(2-Acetylamino-5-guanidino-pentanoylamino)-acetylamino]-N-(1-carbamoyl-2-methyl-propyl)-succinamic acid] (Ac-[ξR]GDV-NH2)
IC50 [10]: 32000 nM

SMILES: CCCCOC(=O)N[C@@H](CNC(=O)C[C@H]1CC(c2ccc(C(=N)N)cc2)=NO1)C(=O)OC [2-Butoxycarbonylamino-3-{2-[3-(4-carbamimidoyl-phenyl)-4,5-dihydro-isoxazol-5-yl]-acetylamino}-propionic acid methyl ester(DMP 754(roxifiban))]
IC50 [2]: 60 nM

SMILES: CC(C)[C@H](NC(=O)[C@H](CC(=O)O)NC(=O)CNC(=O)Cc1ccc(C(=N)N)cc1)C(=O)O
IC50 [5]: 300 nM

SMILES: N=C(N)c1ccc(C(=O)Nc2cccc(C(=O)NCCC(=O)O)c2)cc1
IC50 [5]: 200 nM

SMILES: Cc1noc(C)c1S(=O)(=O)N[C@@H](CNC(=O)C1CCC2(CC1)CCN(c1ccncc1)CC2)C(=O)O [2-(3,5-Dimethyl-isoxazole-4-sulfonylamino)-3-[(3-pyridin-4-yl-3-aza-spiro[5.5]undecane-9-carbonyl)-amino]-propionic acid]
IC50 [3]: 44 nM

SMILES: Cc1noc(C)c1S(=O)(=O)N[C@@H](CCC(=O)N1CCC2(CC1)CCN(c1ccncc1)CC2)C(=O)O [2-(3,5-Dimethyl-isoxazole-4-sulfonylamino)-5-oxo-5-(9-pyridin-4-yl-3,9-diaza-spiro[5.5]undec-3-yl)-pentanoic acid]
IC50 [3]: 21 nM

SMILES: Cc1ccc(S(=O)(=O)N[C@@H](CCC(=O)N2CCC3(CC2)C(=O)N(c2ccc(C(=N)N)cc2)C(=O)N3C)C(=O)O)cc1 [5-[3-(4-Carbamimidoyl-phenyl)-1-methyl-2,4-dioxo-1,3,8-triaza-spiro[4.5]dec-8-yl]-5-oxo-2-(toluene-4-sulfonylamino)-pentanoic acid]
IC50 [3]: 59 nM

SMILES: C[C@@]1(c2ccc(C(=N)N)cc2)NC(=O)N(CC(=O)NC(CC(=O)O)c2ccccc2)C1=O (stereo partly specified) [3-{2-[4-(4-Carbamimidoyl-phenyl)-4-methyl-2,5-dioxo-imidazolidin-1-yl]-acetylamino}-3-phenyl-propionic acid(S1197)]
IC50 [12]: 20 nM

SMILES: CC(C)[C@H](NC(=O)[C@H](CC(=O)O)NC(=O)CCNC(=O)c1ccc(C(=N)N)cc1)C(=O)O [2-{2-[3-(4-Carbamimidoyl-benzoylamino)-propionylamino]-3-carboxy-propionylamino}-3-methyl-butyric acid (Ro 43-5054)]
IC50 [5]: 30 nM
